Data published in patent publication US9890129B2, “Aminoalkylbenzothiazepine derivatives and uses thereof” (CJ Healthcare Corporation, priority 2014, dated 2018).

Test system: SD rats
Experiment: Feces excretion time and evaluation of efficiency (barium-containing diet, oral administration)
Format: in vivo, rat
Settings: for Feces excretion time (min) @ volume (mg/kg): observed 10 hours
Protocol: Eight-week-old SD rats were purchased and allowed to adapt to breeding conditions under 12-hour illumination at 24° C. for 7 days. The rats were made to fast for 16 hours before the experimental day, and orally administered on the experimental day with a vehicle (0.5% methylcellulose) and a test material, […], respectively. Thirty minutes after the administration, the rats fed with 3 g of a barium-containing diet were placed into a metabolism cage and observed to record the time required for the barium to be excreted as feces in each rat after being passed through the intestines for 10 hours. Additionally, the percentage of rats that excreted barium-containing feces within 10 hours were calculated, and the results are shown in Table 1 below.

| SMILES | Percentage of subjects excreting feces within 10 hours (%) (1 mg/kg) | Feces excretion time (min) @ volume (mg/kg) (1 mg/kg) | Percentage of subjects excreting feces within 10 hours (%) (5 mg/kg) | Feces excretion time (min) @ volume (mg/kg) (5 mg/kg) | Percentage of subjects excreting feces within 10 hours (%) (0.1 mg/kg) | Feces excretion time (min) @ volume (mg/kg) (0.1 mg/kg) |
| --- | --- | --- | --- | --- | --- | --- |
| CCCCC1(CCCC)CN(c2ccc(OC)cc2)c2cc(SC)c(CNCC(=O)O)cc2S(=O)(=O)C1 [Example 19, 2-(((3,3-dibutyl-5-(4-methoxyphenyl)-7-methylthio-1,1-dioxido-2,3,4,5-tetrahydrobenzo[b][1,4]thiazepine-8-yl)methyl)amino)acetic acid] | A @ 1 (A: 76-100%) | C @ 1 (C: 501-590 min) | A @ 5 (A: 76-100%) | B @ 5 (B: 401-500 min) |  |  |
| CCCCC1(CCCC)CN(c2ccc(OC)c(F)c2)c2cc(SC)c(CNCC(=O)O)cc2S(=O)(=O)C1 [Example 24, 2-(((3,3-dibutyl-5-(3-fluoro-4-methoxyphenyl)-7-methylthio-1,1-dioxido-2,3,4,5-tetrahydrobenzo[b][1,4]thiazepine-8-yl)methyl)amino)acetic acid] | A @ 1 (A: 76-100%) | C @ 1 (C: 501-590 min) | A @ 5 (A: 76-100%) | A @ 5 (A: 301-400 min) |  |  |
| CCCCC1(CCCC)CN(c2ccccc2)c2cc(SC)c(CNCC(=O)O)cc2S(=O)(=O)C1 [Example 1, 2-(((3,3-dibutyl-7-methylthio-1,1-dioxido-5-phenyl-2,3,4,5-tetrahydrobenzo[b][1,4]thiazepine-8-yl)methyl)amino)acetic acid] | A @ 1 (A: 76-100%) | B @ 1 (B: 401-500 min) | A @ 5 (A: 76-100%) | A @ 5 (A: 301-400 min) | B @ 0.1 (B: 50-75%) | C @ 0.1 (C: 501-590 min) |
| CCCCC1(CCCC)CN(c2ccc(O)cc2)c2cc(SC)c(CNCC(=O)O)cc2S(=O)(=O)C1 [Example 20, 2-(((3,3-dibutyl-5-(4-hydroxyphenyl)-7-methylthio-1,1-dioxido-2,3,4,5-tetrahydrobenzo[b][1,4]thiazepine-8-yl)methyl)amino)acetic acid] | A @ 1 (A: 76-100%) | B @ 1 (B: 401-500 min) | A @ 5 (A: 76-100%) | A @ 5 (A: 301-400 min) | A @ 0.1 (A: 76-100%) | C @ 0.1 (C: 501-590 min) |
| CCCCC1(CCCC)CN(c2ccccc2)c2cc(SC)c(CNC(=O)CS(=O)(=O)O)cc2S(=O)(=O)C1 [Example 18, 2-(((3,3-dibutyl-7-methylthio-1,1-dioxido-5-phenyl-2,3,4,5-tetrahydrobenzo[b][1,4]thiazepine-8-yl)methyl)amino)-2-oxoethanesulfonic acid] | B @ 1 (B: 50-75%) | B @ 1 (B: 401-500 min) |  |  |  |  |
| CCCCC1(CCCC)CN(c2ccc(F)cc2)c2cc(SC)c(CNCC(=O)O)cc2S(=O)(=O)C1 [Example 22, 2-(((3,3-dibutyl-5-(4-fluorophenyl)-7-methylthio-1,1-dioxido-2,3,4,5-tetrahydrobenzo[b][1,4]thiazepine-8-yl)methyl)amino)acetic acid] | A @ 1 (A: 76-100%) | B @ 1 (B: 401-500 min) | A @ 5 (A: 76-100%) | A @ 5 (A: 301-400 min) | A @ 0.1 (A: 76-100%) | B @ 0.1 (B: 401-500 min) |
